The target in assay [1] is T1, 5-hydroxytryptamine receptor 1A (Rattus norvegicus, UniProt P19327).
T1 sequence (P19327 whole entry): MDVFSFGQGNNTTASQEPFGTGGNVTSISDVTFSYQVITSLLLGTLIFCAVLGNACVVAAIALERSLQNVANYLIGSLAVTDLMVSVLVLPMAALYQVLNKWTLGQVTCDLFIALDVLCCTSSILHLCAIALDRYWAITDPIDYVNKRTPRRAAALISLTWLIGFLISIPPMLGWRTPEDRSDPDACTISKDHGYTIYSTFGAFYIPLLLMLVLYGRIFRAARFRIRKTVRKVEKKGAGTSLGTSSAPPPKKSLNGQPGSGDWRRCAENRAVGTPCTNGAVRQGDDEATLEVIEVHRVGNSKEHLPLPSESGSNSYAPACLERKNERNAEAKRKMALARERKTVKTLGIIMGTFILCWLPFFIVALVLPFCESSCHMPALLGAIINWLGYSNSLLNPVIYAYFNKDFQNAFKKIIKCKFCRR
Briefly: The compound was tested for binding affinity on [3H]8-OH-DPAT as specific ligand on 5-hydroxytryptamine 1A receptor in rat hippocampus. The class given is tissue-based.

Assay [2] deals with T2, Alpha-1D adrenergic receptor (Homo sapiens, UniProt P25100).
T2 sequence (P25100 whole entry): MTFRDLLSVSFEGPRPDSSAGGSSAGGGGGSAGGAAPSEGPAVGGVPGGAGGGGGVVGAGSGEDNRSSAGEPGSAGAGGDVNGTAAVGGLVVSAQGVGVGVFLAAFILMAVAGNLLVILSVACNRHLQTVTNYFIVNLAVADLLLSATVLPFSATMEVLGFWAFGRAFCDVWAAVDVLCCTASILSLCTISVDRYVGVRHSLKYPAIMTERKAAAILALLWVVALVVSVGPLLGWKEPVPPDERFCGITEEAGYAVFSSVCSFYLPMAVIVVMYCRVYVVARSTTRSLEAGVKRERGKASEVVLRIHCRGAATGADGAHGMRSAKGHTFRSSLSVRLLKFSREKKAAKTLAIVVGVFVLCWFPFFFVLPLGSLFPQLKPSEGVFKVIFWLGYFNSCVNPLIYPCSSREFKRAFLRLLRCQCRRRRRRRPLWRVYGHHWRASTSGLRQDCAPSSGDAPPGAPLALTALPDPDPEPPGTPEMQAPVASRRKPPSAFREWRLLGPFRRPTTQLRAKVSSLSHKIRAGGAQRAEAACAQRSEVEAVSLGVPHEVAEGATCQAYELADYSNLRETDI
Briefly: The compound was tested for binding affinity on [3H]- prazosin as specific ligand on Human cloned alpha-1D adrenergic receptor in CHO cells. The class given is cell-based.

Assay [3] has as its target T3, Alpha-1A adrenergic receptor (Homo sapiens, UniProt P35348).
T3 sequence (P35348 whole entry): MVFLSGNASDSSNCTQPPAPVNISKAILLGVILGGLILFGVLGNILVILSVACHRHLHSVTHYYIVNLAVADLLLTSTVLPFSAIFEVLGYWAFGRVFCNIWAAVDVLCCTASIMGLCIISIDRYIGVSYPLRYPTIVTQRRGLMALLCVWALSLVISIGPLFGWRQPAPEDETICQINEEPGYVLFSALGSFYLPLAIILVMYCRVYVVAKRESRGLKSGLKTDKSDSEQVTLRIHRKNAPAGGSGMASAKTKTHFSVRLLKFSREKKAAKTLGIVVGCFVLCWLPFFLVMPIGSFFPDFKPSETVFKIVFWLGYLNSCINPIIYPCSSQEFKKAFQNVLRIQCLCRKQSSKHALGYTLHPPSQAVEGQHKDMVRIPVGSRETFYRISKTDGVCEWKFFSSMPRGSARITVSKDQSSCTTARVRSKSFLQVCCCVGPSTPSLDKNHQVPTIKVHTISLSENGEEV
Briefly: The compound was tested for binding affinity on [3H]- prazosin as specific ligand on Human cloned alpha-1A adrenergic receptor expressed in CHO cells. It is filed as cell-based.

The target in assay [4] is T4, Alpha-1B adrenergic receptor (Homo sapiens, UniProt P35368).
T4 sequence (P35368 whole entry): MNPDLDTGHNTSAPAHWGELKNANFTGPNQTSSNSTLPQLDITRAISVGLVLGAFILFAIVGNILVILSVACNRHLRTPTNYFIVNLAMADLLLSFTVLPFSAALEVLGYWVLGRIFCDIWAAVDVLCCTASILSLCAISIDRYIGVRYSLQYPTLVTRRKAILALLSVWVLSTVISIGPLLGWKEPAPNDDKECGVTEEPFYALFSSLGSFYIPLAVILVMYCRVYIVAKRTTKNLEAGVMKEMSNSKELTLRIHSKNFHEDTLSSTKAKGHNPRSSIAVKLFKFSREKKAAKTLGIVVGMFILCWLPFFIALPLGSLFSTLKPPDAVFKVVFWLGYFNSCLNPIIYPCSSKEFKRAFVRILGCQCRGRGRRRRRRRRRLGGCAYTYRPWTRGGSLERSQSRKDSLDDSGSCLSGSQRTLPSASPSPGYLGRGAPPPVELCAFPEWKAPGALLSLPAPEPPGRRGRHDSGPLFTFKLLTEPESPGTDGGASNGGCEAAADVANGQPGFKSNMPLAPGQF
The experiment in a line: The compound was tested for binding affinity on [3H]- prazosin as specific ligand on Human cloned alpha-1B adrenergic receptor in CHO cells. The class given is cell-based.

Assay [5] can be described thus: Ratio of the binding affinities against 5-HT1A and alpha-1-adrenoceptor from rat brain membranes. It is filed as cell membranes. The following applies: Membrane.
Assay [6] concerns the target T5, Adrenergic receptor alpha-1 (Rattus norvegicus, UniProt P15823+P23944+P43140).
T5 sequence (P15823 whole entry): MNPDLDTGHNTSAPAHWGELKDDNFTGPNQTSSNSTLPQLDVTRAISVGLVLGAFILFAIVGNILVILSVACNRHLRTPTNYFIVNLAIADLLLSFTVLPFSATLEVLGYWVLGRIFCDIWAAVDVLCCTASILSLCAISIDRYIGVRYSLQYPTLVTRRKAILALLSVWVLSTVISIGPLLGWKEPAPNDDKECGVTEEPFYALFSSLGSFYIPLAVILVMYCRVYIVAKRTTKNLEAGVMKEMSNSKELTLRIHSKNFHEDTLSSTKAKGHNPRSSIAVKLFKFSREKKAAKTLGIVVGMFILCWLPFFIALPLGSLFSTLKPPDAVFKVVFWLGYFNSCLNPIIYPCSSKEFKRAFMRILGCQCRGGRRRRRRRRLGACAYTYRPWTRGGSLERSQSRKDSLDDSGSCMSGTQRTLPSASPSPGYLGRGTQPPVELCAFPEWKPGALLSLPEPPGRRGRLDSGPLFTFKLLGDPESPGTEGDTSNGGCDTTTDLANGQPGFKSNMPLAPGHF
T5 sequence (P23944 whole entry): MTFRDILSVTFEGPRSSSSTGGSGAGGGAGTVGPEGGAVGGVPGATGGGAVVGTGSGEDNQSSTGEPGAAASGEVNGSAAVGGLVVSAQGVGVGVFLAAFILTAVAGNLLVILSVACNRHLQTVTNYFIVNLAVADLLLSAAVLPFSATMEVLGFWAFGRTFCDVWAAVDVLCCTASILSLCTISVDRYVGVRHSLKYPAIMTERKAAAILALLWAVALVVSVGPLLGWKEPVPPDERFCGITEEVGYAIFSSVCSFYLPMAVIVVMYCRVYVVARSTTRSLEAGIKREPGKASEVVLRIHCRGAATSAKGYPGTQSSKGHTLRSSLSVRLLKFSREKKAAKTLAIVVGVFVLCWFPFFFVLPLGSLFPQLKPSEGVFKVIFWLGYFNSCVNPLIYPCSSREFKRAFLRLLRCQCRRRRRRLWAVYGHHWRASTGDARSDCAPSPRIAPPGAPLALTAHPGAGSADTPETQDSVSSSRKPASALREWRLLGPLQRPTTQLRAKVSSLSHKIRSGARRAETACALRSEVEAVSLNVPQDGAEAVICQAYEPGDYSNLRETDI
T5 sequence (P43140 whole entry): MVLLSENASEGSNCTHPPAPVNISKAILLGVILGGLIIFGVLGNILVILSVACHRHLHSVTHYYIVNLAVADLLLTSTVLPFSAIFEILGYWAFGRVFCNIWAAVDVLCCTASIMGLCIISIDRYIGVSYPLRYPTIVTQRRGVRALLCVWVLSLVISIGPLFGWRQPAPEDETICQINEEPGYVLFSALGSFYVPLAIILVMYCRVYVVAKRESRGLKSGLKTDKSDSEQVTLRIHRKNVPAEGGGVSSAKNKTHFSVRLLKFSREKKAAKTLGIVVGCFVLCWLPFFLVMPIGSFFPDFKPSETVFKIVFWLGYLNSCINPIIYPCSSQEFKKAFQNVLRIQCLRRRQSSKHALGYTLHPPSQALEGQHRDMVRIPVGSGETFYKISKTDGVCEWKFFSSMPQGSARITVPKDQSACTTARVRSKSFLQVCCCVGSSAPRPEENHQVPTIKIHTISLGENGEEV
The experiment in a line: The compound was tested for binding affinity on [3H]- prazosin as specific ligand on alpha-1 adrenergic receptor cells in rat cerebral cortex. The class given is tissue-based.

A word on the Ki: it is the dissociation constant of the complex between target and ligand, obtained from inhibition or displacement. Low values mean tighter binding, high ones weaker binding. As for `Cn1nc(Cl)c2cn3nc(NCCN4CCN(c5ccccc5Cl)CC4)ccc3c2c1=O`, the Ki in assay [1] was found to be 56.5 nM; in assay [2], 11.9 nM; in assay [3], 5.93 nM; in assay [4], 13.6 nM; in assay [6], 54.6 nM. In addition, in assay [5], the Ratio was found to be 1.03.

Regarding `COc1ccccc1N1CCN(CCn2nc(-c3ccccc3)c(C(C)=O)c(N)c2=O)CC1`, the Ki was 123 nM in assay [1]; 0.93 nM in assay [2]; 4.75 nM in assay [3]; 22.1 nM in assay [4]; 24.6 nM in assay [6]. In assay [5], the Ratio was determined as 5.01.

Take `Cn1nc(Cl)c2cn3nc(NCCN4CCN(c5ccccc5)CC4)ccc3c2c1=O`: the Ki in assay [1] was 21.2 nM; in assay [2], 6.56 nM; in assay [3], 1.93 nM; in assay [4], 15.6 nM; in assay [6], 129.2 nM. Further, in assay [5], the Ratio was determined as 0.16.

Regarding `COc1ccccc1N1CCN(CCNc2ccc3c4c(=O)n(C)nc(Cl)c4cn3n2)CC1`, the inhibition constant (Ki) in assay [1] is 16.3 nM; in assay [2], 3.04 nM; in assay [3] it was 1.1 nM; in assay [4] it was 15.2 nM; in assay [6] it was 73.3 nM. Moreover, the Ratio in assay [5] was 0.22.

(Values after ChEMBL document CHEMBL1132200, “Novel adrenoceptor antagonists with a tricyclic pyrrolodipyridazine skeleton” (J Med Chem, 1999).)
